Laboratory results reported in ChEMBL document CHEMBL5728524, “Apoptosis signal-regulating kinase inhibitors and uses thereof” (2021).

Target: T1, Mitogen-activated protein kinase kinase kinase 5 (Homo sapiens, UniProt Q99683)
T1 sequence (Q99683 whole entry): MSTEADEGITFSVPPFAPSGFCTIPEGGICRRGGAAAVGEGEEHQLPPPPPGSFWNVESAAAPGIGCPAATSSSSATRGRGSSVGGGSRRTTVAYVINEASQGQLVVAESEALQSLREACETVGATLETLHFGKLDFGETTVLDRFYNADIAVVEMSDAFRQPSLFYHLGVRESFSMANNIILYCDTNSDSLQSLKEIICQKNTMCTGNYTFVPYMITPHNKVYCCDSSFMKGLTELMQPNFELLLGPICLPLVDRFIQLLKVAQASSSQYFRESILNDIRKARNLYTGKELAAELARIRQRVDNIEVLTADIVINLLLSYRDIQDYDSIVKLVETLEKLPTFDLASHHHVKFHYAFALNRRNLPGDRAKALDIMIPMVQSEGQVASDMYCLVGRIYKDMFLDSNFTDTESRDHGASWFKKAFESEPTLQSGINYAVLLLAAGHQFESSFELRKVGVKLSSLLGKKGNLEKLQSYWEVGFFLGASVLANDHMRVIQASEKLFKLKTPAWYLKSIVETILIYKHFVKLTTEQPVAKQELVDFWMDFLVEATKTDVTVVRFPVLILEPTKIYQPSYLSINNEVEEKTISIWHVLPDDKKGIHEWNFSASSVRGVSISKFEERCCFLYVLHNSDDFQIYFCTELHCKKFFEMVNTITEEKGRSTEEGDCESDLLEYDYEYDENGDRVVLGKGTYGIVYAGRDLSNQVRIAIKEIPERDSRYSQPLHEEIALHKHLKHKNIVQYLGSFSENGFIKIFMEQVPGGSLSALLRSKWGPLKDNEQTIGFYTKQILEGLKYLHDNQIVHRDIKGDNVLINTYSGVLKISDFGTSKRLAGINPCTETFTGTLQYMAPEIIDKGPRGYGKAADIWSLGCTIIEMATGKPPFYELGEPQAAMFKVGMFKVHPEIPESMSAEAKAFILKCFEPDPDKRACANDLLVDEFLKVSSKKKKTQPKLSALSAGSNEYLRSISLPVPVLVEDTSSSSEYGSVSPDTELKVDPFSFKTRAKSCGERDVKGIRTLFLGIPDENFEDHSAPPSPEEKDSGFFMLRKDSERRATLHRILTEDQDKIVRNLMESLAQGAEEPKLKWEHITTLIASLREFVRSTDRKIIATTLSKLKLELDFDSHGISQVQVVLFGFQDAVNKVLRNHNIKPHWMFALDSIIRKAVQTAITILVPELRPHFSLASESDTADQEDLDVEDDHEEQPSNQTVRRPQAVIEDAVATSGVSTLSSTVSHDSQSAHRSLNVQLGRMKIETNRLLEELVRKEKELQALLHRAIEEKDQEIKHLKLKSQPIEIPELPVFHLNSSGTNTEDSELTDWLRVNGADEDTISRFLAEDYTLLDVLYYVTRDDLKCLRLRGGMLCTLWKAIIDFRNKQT
Experiment: Biochemical Assay: The binding of compounds to ASK1 were determined using DiscoverX's proprietary technology. […] The assay is performed by combining three components: DNA-tagged ASK1 kinase; immobilized ligand; and a test compound. The ability of the test compound to compete with the immobilized ligand is measured via quantitative PCR of the DNA tag. […] The liganded beads were blocked with excess biotin and washed with blocking buffer (SeaBlock (Pierce), 1% BSA, 0.05% Tween 20, 1 mM DTT) to remove unbound ligand and to reduce nonspecific binding. […] Kds were determined using an 11-point 3-fold compound dilution series with three DMSO control points. […] The compounds were then diluted directly into the assays such that the final concentration of DMSO was 0.9%. All reactions were performed in polypropylene 384-well plate. […] The kinase concentration in the eluates was measured by qPCR. Most Kds were determined using a compound top concentration=30,000 nM.

O=C1Nc2cccc(n2)-c2nncn2CCCCOc2ccc(-c3ccc(CCF)nc3)cc21
Kd: < 100 nM

Cc1ncc(-c2ccc3c(c2)C(=O)Nc2cccc(n2)-c2nncn2CCCCO3)cc1F
Kd: < 100 nM
